From US20060148842A1, “Nepetalactams and N-substituted derivatives thereof” (priority 2004, published 2006) come the findings set out here.

The term pest or weed control denotes how far the test organism was held down. Lower therefore signals weak suppression.

This experiment concerns Aedes aegypti mosquitoes. Put plainly: in vitro Gupta box landing assay (insect repellency). Particulars: 20 min; 1.0% (w/v) in IPA, 25 μL on Baudruche membrane; landings of female Aedes aegypti over 20 min vs IPA control. On the procedure: The products of Examples 1-15 were evaluated for insect repellency against Aedes aegypti mosqutioes in the in vitro Gupta box landing assay. In this method a chamber contained 5 wells, each covered by a Baudruche (animal intestine) membrane. Each well was filled with bovine blood containing sodium citrate (to prevent clotting) and ATP (72 mg ATP disodium salt per 26 ml of blood), and heated to 37° C. A volume of 25 μL of isopropyl alcohol (IPA) containing one test specimen or control was applied to each membrane. The concentrations were 1.0% (w/v) in IPA. The negative control was membrane surface treated with neat IPA, and the positive control was a 1.0% (w/v) solution of DEET.
After 5 min, approximately 250 4-day-old female Aedes aegypti mosquitoes were introduced into the chamber. The number of mosquitoes probing the membranes for each treatment was recorded at 2 min intervals over 20 min. The results obtained in this manner with respect to the compounds of Examples 1˜12 are depicted, respectively, in FIGS. 1-12 (labeled as Examples 16˜27) wherein each datum represents the mean of five replicate experiments.
where C=the total number of landings on the IPA control well, and T=the total number of landings on the test solution well. The % mean repellencies at 1% (w/v) with respect to the compounds of Examples 1˜15 are depicted in Table 2, wherein R refers to the substituent on nepetalactam.

With `CC1=CNC(=O)[C@H]2[C@@H]1CC[C@@H]2C` [II, (4aS,7S,7aR)-4,7-dimethyl-2,4a,5,6,7,7a-hexahydro-1H-cyclopenta [c]pyridin-1-one], the pest or weed control at 10000 µg/mL was 66%. In the case of `CC1=CN(C)C(=O)[C@H]2[C@@H]1CC[C@@H]2C` [IIIa, (4aS,7S,7aR)-2,4,7-trimethyl-2,4a,5,6,7,7a-hexahydro-1H-cyclopenta[c]pyridin-1-one] it was 94.8%; in that of `CCN1C=C(C)[C@H]2CC[C@H](C)[C@H]2C1=O` [IIIb, (4aS,7S,7aR)-2-ethyl-4,7-dimethyl-2,4a,5,6,7,7a-hexahydro-1H-cyclopenta[c]pyridin-1-one], 97.9%; in that of `CCCN1C=C(C)[C@H]2CC[C@H](C)[C@H]2C1=O` [IIIc, (4aS,7S,7aR)-2-n-propyl-4,7-dimethyl-2,4a,5,6,7,7a-hexahydro-1H-cyclopenta[c]pyridin-1-one], 99.8%. With `CCCCN1C=C(C)[C@H]2CC[C@H](C)[C@H]2C1=O` [IIId, (4aS,7S,7aR)-2-n-butyl-4,7-dimethyl-2,4a,5,6,7,7a-hexahydro-1H-cyclopenta[c]pyridin-1-one], the pest or weed control at 10000 µg/mL is 97.3%. In the case of `CCCCCN1C=C(C)[C@H]2CC[C@H](C)[C@H]2C1=O` [IIIe, (4aS,7S,7aR)-2-n-pentyl-4,7-dimethyl-2,4a,5,6,7,7a-hexahydro-1H-cyclopenta[c]pyridin-1-one] it was 97.5%; in that of `CCCCCCN1C=C(C)[C@H]2CC[C@H](C)[C@H]2C1=O` [IIIf, (4aS,7S,7aR)-2-n-hexyl-4,7-dimethyl-2,4a,5,6,7,7a-hexahydro-1H-cyclopenta[c]pyridin-1-one], 97.2%; in that of `CCCCCCCCN1C=C(C)[C@H]2CC[C@H](C)[C@H]2C1=O` [IIIg, (4aS,7S,7aR)-2-n-octyl-4,7-dimethyl-2,4a,5,6,7,7a-hexahydro-1H-cyclopenta[c]pyridin-1-one], 93.2%. Next, `CC1=CN(C2CCCCC2)C(=O)[C@H]2[C@@H]1CC[C@@H]2C` [IIIh, (4aS,7S,7aR)-2-n-cyclohexyl-4,7-dimethyl-2,4a,5,6,7,7a-hexahydro-1H-cyclopenta[c]pyridin-1-one]: 98.9%; `CC1=CN(C(C)C)C(=O)[C@H]2[C@@H]1CC[C@@H]2C` [IIIi, (4aS,7S,7aR)-2-n-isopropyl-4,7-dimethyl-2,4a,5,6,7,7a-hexahydro-1H-cyclopenta[c]pyridin-1-one]: 94.7%; `C=CCN1C=C(C)[C@H]2CC[C@H](C)[C@H]2C1=O` [IIIj, (4aS,7S,7aR)-2-n-allyl-4,7-dimethyl-2,4a,5,6,7,7a-hexahydro-1H-cyclopenta[c]pyridin-1-one]: 78.1%. Next, `C#CCN1C=C(C)[C@H]2CC[C@H](C)[C@H]2C1=O` [IIIk, (4aS,7S,7aR)-2-n-propargyl-4,7-dimethyl-2,4a,5,6,7,7a-hexahydro-1H-cyclopenta[c]pyridin-1-one]: 95.6%; `CC1=CN(c2ccccc2)C(=O)[C@H]2[C@@H]1CC[C@@H]2C` [Va, (4aS,7S,7aR)-4,7-dimethyl-2-phenyl-2,4a,5,6,7,7a-hexahydro-1H-cyclopenta[c]pyridin-1-one]: 93.1%. Take `CC1=CN(c2ccc(Cl)cc2)C(=O)[C@H]2[C@@H]1CC[C@@H]2C` [Vb, (4aS,7S,7aR)-2-(4-chlorophenyl)-4,7-dimethyl-2,4a,5,6,7,7a-hexahydro-1H-cyclopenta[c]pyridin-1-one]: the pest or weed control at 10000 µg/mL is 75.3%. Next, `CC1=CN(c2ccc(Br)cc2)C(=O)[C@H]2[C@@H]1CC[C@@H]2C` [Vc, (4aS,7S,7aR)-2-(4-bromophenyl)-4,7-dimethyl-2,4a,5,6,7,7a-hexahydro-1H-cyclopenta[c]pyridin-1-one]: 41.5%.
